Results taken from article PMC12040169 (PLOS Biology, 2025).

Test: in vitro
Conditions: human, hela cells, % viability

SMILES	viability at 28.5 h, 10 µM
O=C1c2ccccc2C(=O)c2c1cccc2S(=O)(=O)N1CCN(C(=O)C2CCCO2)CC1 (centres unmarked) [CBK200038]	40.5%
O=S(=O)(c1ccc(OC(F)(F)F)cc1)N1CCN(Cc2ccc3c(c2)OCO3)CC1 [CBK200040]	82.5%
COC(=O)c1sccc1NS(=O)(=O)c1ccc(C(F)(F)F)cc1 [CBK200041]	95.5%
COC[C@@H]1CCCN1S(=O)(=O)c1ccc(C(C)C)cc1 [CBK200045]	110%
O=[N+]([O-])c1ccc(S(=O)(=O)Nc2nnc(C3CCCCC3)s2)cc1 [CBK200049]	94.8%
CCc1nnc(NS(=O)(=O)c2ccc(NCc3cc(Cl)ccc3O)cc2)s1 [CBK200051]	100%
Cc1c(Cl)cccc1S(=O)(=O)Nc1nc(CSc2ccccn2)ns1 [CBK200054]	97.2%
O=C(OCCC1SC(NC2CC3C=CC2C3)=NC1=O)c1ccc(Cl)c(Cl)c1 (centres unmarked) [CBK200056T]	87.1%
O=C(OCCC1SC(NC2CC3C=CC2C3)=NC1=O)c1c(F)cccc1F (centres unmarked) [CBK200057T]	89.7%
O=C(OCCC1SC(NC2CC3C=CC2C3)=NC1=O)c1cc(F)ccc1F (centres unmarked) [CBK200059T]	92.2%
O=C(NCCC1SC(NC2CC3C=CC2C3)=NC1=O)c1ccccc1Cl (centres unmarked) [CBK200062]	113%
CC(C)(C)c1ccc(S(=O)(=O)N2CCCC[C@H]2COC(=O)CCC(=O)O)cc1 [CBK200063]	117%
CC(C)(C)c1ccc(S(=O)(=O)N2CCCC[C@H]2COC(=O)COCC(=O)O)cc1 [CBK200064]	96.6%
CC(C)(C)c1ccc(S(=O)(=O)N2CCCC[C@H]2CCOC(=O)c2ncccc2C(=O)O)cc1 [CBK200066]	98.7%
CC(C)(C)c1ccc(S(=O)(=O)N2CCCC[C@H]2CCOC(=O)/C=C\C(=O)O)cc1 [CBK200069]	89.6%
C=C(C)Cn1c(-c2ccccc2C)nnc1S(=O)(=O)CC(C)C [CBK200074]	80%
C=C(C)Cn1c(SCC(C)C)nnc1-c1cnccc1C [CBK200075T]	96%
Cc1ccccc1-c1nnc2n1CCCCC2 [CBK200076A]	108%
C=C(C)Cn1c(SCC(C)C)nnc1-c1ccccc1F [CBK200077]	107%
Cc1ccccc1-c1nnc(SC(C)C)n1CCNCCO [CBK200084T]	86.9%
C=C(C)Cn1c(SCC(C)C)nnc1-c1ccc(F)cc1 [CBK200085]	99.9%
Cc1ccccc1-c1nnc(SC(C)C)n1CCN(C)S(C)(=O)=O [CBK200088]	101%
Cc1ccccc1-c1nnc(SC(C)C)n1CCN(C)CC(F)(F)F [CBK200090]	92.3%
CC(C)CSc1nnc(-c2ccccc2F)n1CC(C)C [CBK200091]	95.8%
Brc1ccccc1-c1nnc2n1CCCCC2 [CBK200092]	90.9%

SMILES	viability at 28.5 h, 10 µM
COc1cc(C(C)c2cc3c(cc2O)OCO3)cc(OC)c1OC (centres unmarked) [CBK200103]	36.3%
COC(=O)C1Cc2cc3c(cc2C(c2cc(OC)c(OC)c(OC)c2)N1)OCO3 (centres unmarked) [CBK200104T]	65.5%
COc1cc2c(cc1C(C)c1ccc3c(c1)OCO3)OCO2 (centres unmarked) [CBK200107]	97.4%
COc1ccc(C(C)c2cc3c(cc2OCC(=O)O)OCO3)cc1 (centres unmarked) [CBK200108]	87.4%
CC(c1ccc2c(c1)OCO2)c1cc2c(cc1OCCO)OCO2 (centres unmarked) [CBK200110]	98.9%
O=C(O)Cc1sc(-c2ccc3c(c2)OCO3)nc1-c1ccccc1 [CBK200114]	87.3%
Cc1onc(-c2ccccc2)c1C(=O)NCc1ccccc1 [CBK200116]	99.4%
Cc1ccc(C(=O)NC2CCCC2)cn1 [CBK200117]	91.6%
O=C(NC1CCCC1)c1ccc2ncccc2c1 [CBK200118]	90.2%
CN1CCN(c2ccc(C(=O)NC3CCCC3)cc2)CC1 [CBK200119]	78.5%
O=C(OCc1cc2ccccc2cn1)N1CCOCC1 [CBK200121]	102%
C[C@@H]1CN(C(=O)OCCn2cccc2)C[C@H](C)O1 [CBK200123]	82.2%
O=C(Nc1ccncc1)OCCc1cccnc1 [CBK200125]	94.2%
Cc1cc(NC(=O)OCc2cccnc2C)c2ccccc2n1 [CBK200129]	95.9%
Cc1ccc(CNC(=O)OCc2cccnc2C)o1 [CBK200131]	99%
O=C(NCc1ccc(C(F)(F)F)nc1)OCCc1ccncc1 [CBK200132]	93.2%
O=C(NCc1ccncc1)OCCc1ccncc1 [CBK200133]	108%
Cc1ncccc1COC(=O)N1c2ccc(F)cc2CCC1C (centres unmarked) [CBK200139]	92.2%
O=C(OCCc1ccncc1)N1CCc2ccccc21 [CBK200140]	94.9%
O=C(OCCc1ccncc1)N1Cc2ccccc2C1 [CBK200141]	95.5%
C[C@@H]1CN(C(=O)OCc2nccn2C)C[C@H](C)O1 [CBK200142]	103%
COc1c(C)cnc(COC(=O)N2C[C@@H](C)O[C@@H](C)C2)c1C [CBK200143]	96.2%
Cc1cc2nc(COC(=O)N3CCOCC3)[nH]c2cc1C [CBK200144]	107%
COc1c(C)cnc(COC(=O)N2CCOCC2)c1C [CBK200145]	105%
O=C(OCc1nc2ccccc2[nH]1)N1CCOCC1 [CBK200146]	109%

SMILES	viability at 28.5 h, 10 µM
Cc1nc(-c2ccccc2)ncc1COC(=O)N1CCOCC1 [CBK200147]	112%
Cc1ccsc1CNC(=O)OCC1CCN(C)CC1 [CBK200149]	96.9%
Cc1ncccc1COC(=O)N1CCSCC1 [CBK200156]	104%
O=C(OCCc1ccncc1)N1CCCC(F)(F)C1 [CBK200157]	92.2%
O=C(OCCc1cccnc1)N1CCC(C(F)(F)F)CC1 [CBK200159]	94.9%
COC1CCN(C(=O)OCCc2cccnc2)CC1 [CBK200161]	89.2%
O=C(OCc1cc2ccccc2o1)N1CCOCC1 [CBK200162]	98.1%
O=C(OCc1ccc2sccc2c1)N1CCOCC1 [CBK200163]	101%
Cc1noc(C)c1C(=O)N1CCN(c2ccccc2)CC1 [CBK200165]	97.8%
O=C(c1nc2ccccc2[nH]1)N1CCN(c2ccccc2)CC1 [CBK200167]	103%
Cn1cc(CC(=O)N2CCN(c3ccccc3)CC2)c2ccccc21 [CBK200168]	95.8%
Cc1ncccc1C(=O)N1CCN(Cc2ccccc2)CC1 [CBK200171]	97.7%
O=C(Cc1ccccn1)N1CCN(Cc2ccccc2)CC1 [CBK200174]	103%
O=C(c1ccc2ncccc2c1)N1CCN(Cc2ccccc2)CC1 [CBK200175]	99.1%
Cc1nc(C)c(C(=O)N2CCN(Cc3ccccc3)CC2)s1 [CBK200177]	101%
O=C(c1cnccn1)N1CCC(Cc2ccccc2)CC1 [CBK200181]	92.6%
O=C(Cc1cccnc1)N1CCC(Cc2ccccc2)CC1 [CBK200183]	97%
O=C(c1ccc2ccccc2n1)N1CCC(Cc2ccccc2)CC1 [CBK200184]	96.4%
O=C(NCc1ccccc1)c1ccncc1 [CBK200189]	108%
O=C(NCc1ccccc1)c1ccnc2ccccc12 [CBK200191]	83.7%
Cc1ccncc1C(=O)NCc1ccccc1 [CBK200193]	110%
O=C(NCc1ccccc1)c1cnccc1C(F)(F)F [CBK200194]	92.3%
Cn1c(C(=O)NCc2ccccc2)cc2ccccc21 [CBK200195]	81.7%
Cn1cc(C(=O)NCc2ccccc2)c2ccccc21 [CBK200196]	72.9%
O=C(NCc1ccccc1)c1ccno1 [CBK200197]	86.9%

SMILES	viability at 28.5 h, 10 µM
Cc1cc(C(=O)NCc2ccccc2)n[nH]1 [CBK200198]	95.7%
Cn1cncc1C(=O)NCc1ccccc1 [CBK200199]	96.9%
Cn1cc(CC(=O)NCc2ccccc2)c2ccccc21 [CBK200200]	84.1%
O=C(c1ccccn1)N1CCN(CCc2ccccc2)CC1 [CBK200201]	99.1%
Cc1ncccc1COC(=O)N1c2ccccc2CCC1C (centres unmarked) [CBK200204]	101%
Cc1ccc(CNC(=O)OCCN2CCN(C)CC2)o1 [CBK200205]	112%
CN1CCN(CCOC(=O)N2CCC(C(F)(F)F)CC2)CC1 [CBK200206]	103%
CN1CCN(CCOC(=O)N2CCCC(C(F)(F)F)C2)CC1 (centres unmarked) [CBK200207]	87.2%
CN1CCN(CCOC(=O)N2CCCC(F)(F)C2)CC1 [CBK200208]	105%
O=C(c1ccc2nccnc2c1)N1CCN(c2ccccc2)CC1 [CBK200209]	92.9%
O=C(COc1cccnc1)N1CCN(c2ccccc2)CC1 [CBK200210]	106%
CN1CCC(C(=O)N2CCN(c3ccccc3)CC2)CC1 [CBK200211]	93.5%
Cc1cc2ncn(CC(=O)NCc3ccccc3)c2cc1C [CBK200213]	104%
O=C(CN1CCOCC1)N1CCN(CCc2ccccc2)CC1 [CBK200215]	91.4%
CN1CCC(C(=O)N2CCN(CCc3ccccc3)CC2)CC1 [CBK200216]	103%
O=C(NC1CCCC1)c1ccc2nccnc2c1 [CBK200217]	102%
Cc1ccc(NC(=O)c2cnc3ccccc3n2)c(C)n1 [CBK200218]	97.7%
Cc1cc2ncn(CC(=O)Nc3c(C)noc3C)c2cc1C [CBK200222]	79.5%
O=C(c1cncnc1)N1Cc2ccccc2C1 [CBK200223]	106%
O=C(c1cnccn1)N1CCN(CCc2ccccc2)CC1 [CBK200224]	101%
O=C(c1csnn1)N1CCN(CCc2ccccc2)CC1 [CBK200228]	96.6%
CCOc1ccsc1C(=O)N1CCN(CCc2ccccc2)CC1 [CBK200229]	91.5%
O=C(c1cscn1)N1CCN(CCc2ccccc2)CC1 [CBK200230]	106%
